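Dose response: 5 concentrations. Exposure: 48 h. Format: 96-well plates. Endpoint: linear interpolation; highest concentration if not reached. TGI: concentration producing complete growth inhibition.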
How the values were obtained:
Experiment in all cases: inhibition of tumour cell growth, NCI panel, 48 h
OVCAR-5 ovarian = tested on: OVCAR-5 ovarian
PC-3 prostate = tested on: PC-3 prostate
DU-145 prostate = tested on: DU-145 prostate
CCRF-CEM leukemia = tested on: CCRF-CEM leukemia
HOP-92 NSCLC = tested on: HOP-92 NSCLC
LOX IMVI melanoma = tested on: LOX IMVI melanoma
RPMI-8226 leukemia = tested on: RPMI-8226 leukemia
IGROV1 ovarian = tested on: IGROV1 ovarian
786-0 renal = tested on: 786-0 renal
EKVX NSCLC = tested on: EKVX NSCLC
UO-31 renal = tested on: UO-31 renal
MALME-3M melanoma = tested on: MALME-3M melanoma
COLO 205 colon = tested on: COLO 205 colon
K-562 leukemia = tested on: K-562 leukemia
MOLT-4 leukemia = tested on: MOLT-4 leukemia
M14 melanoma = tested on: M14 melanoma
KM12 colon = tested on: KM12 colon
A498 renal = tested on: A498 renal
MDA-MB-435 = tested on: MDA-MB-435
BT-549 breast = tested on: BT-549 breast
A549 NSCLC = tested on: A549 NSCLC
SK-OV-3 ovarian = tested on: SK-OV-3 ovarian
U251 CNS = tested on: U251 CNS
OVCAR-8 ovarian = tested on: OVCAR-8 ovarian
MDA-MB-231 breast = tested on: MDA-MB-231 breast
SNB-75 CNS = tested on: SNB-75 CNS
SW-620 colon = tested on: SW-620 colon
NCI/ADR-RES ovarian = tested on: NCI/ADR-RES ovarian
RXF 393 renal = tested on: RXF 393 renal
SK-MEL-5 melanoma = tested on: SK-MEL-5 melanoma
SF-295 CNS = tested on: SF-295 CNS
NCI-H460 lung = tested on: NCI-H460 lung
HOP-62 NSCLC = tested on: HOP-62 NSCLC
MCF7 breast = tested on: MCF7 breast
CAKI-1 renal = tested on: CAKI-1 renal
SNB-19 CNS = tested on: SNB-19 CNS
OVCAR-3 ovarian = tested on: OVCAR-3 ovarian
TK-10 renal = tested on: TK-10 renal
SF-268 CNS = tested on: SF-268 CNS
OVCAR-4 ovarian = tested on: OVCAR-4 ovarian
T-47D breast = tested on: T-47D breast
HCT-15 colon = tested on: HCT-15 colon
NCI-H226 lung = tested on: NCI-H226 lung
UACC-62 melanoma = tested on: UACC-62 melanoma
SK-MEL-28 melanoma = tested on: SK-MEL-28 melanoma
HT29 colon = tested on: HT29 colon
SF-539 CNS = tested on: SF-539 CNS
UACC-257 melanoma = tested on: UACC-257 melanoma
HL-60(TB) leukemia = tested on: HL-60(TB) leukemia
MDA-N = tested on: MDA-N
HS 578T breast = tested on: HS 578T breast
HCT-116 colon = tested on: HCT-116 colon
SR leukemia = tested on: SR leukemia
NCI-H23 lung = tested on: NCI-H23 lung
ACHN renal = tested on: ACHN renal
SN12C renal = tested on: SN12C renal
NCI-H522 lung = tested on: NCI-H522 lung
SK-MEL-2 melanoma = tested on: SK-MEL-2 melanoma

Measured: TGI

COC1CC(C)(NC(C)=O)C2OC(c3ccccc3)OCC2O1 (stereo not given)
not listed: SK-MEL-2 melanoma
> 100 µM: all other assays above

C=C(C)c1ccccc1 (tested in a mixture with another compound)
not listed: CCRF-CEM leukemia
> 100 µM: all other assays above

CCn1c2ccccc2c2nnc(NCCCO)nc21
not listed: UO-31 renal
> 100 µM: all other assays above

O=C(O)/C=C/C=C/c1ccc2c(c1)OCO2
not listed: CCRF-CEM leukemia
> 100 µM: all other assays above

CC(=O)Nc1nc2ncc(C=O)nc2c(=O)[nH]1
not listed: CCRF-CEM leukemia
> 100 µM: all other assays above

— PubChem BioAssay (NCI)
